# Experimental data as given in ChEMBL document CHEMBL1201862, “PubChem BioAssay data set” (2004).
#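 A five-concentration, 48-hour dose response in 96-well plates underlies each endpoint, interpolated linearly between surrounding concentrations. At the GI50, growth is halved.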 Calls of active or inactive are those of the source. No stated cut-off is given here; in the data, active = GI50 up to about 1.1 µM and inactive = higher. Square brackets hold non-standard residues; d marks the D form. Peptide text beside a SMILES is read from it. * marks the point of attachment. Phe(4-NO2) = N[CH](Cc1ccc([N+](=O)[O-])cc1)C(=O)O; Boc = CC(C)(C)OC(=O)*
# Columns and labels:
# Assay in all cases: DTP human tumour cell line panel, 48 h
# IGROV-1 = system: IGROV-1
# MDA-MB-231 = system: MDA-MB-231
# BT-549 = system: BT-549
# A549 = system: A549
# EKVX = system: EKVX
# SF-539 = system: SF-539
# SR = system: SR
# A498 = system: A498
# OVCAR-3 = system: OVCAR-3
# OVCAR-8 = system: OVCAR-8
# UACC-62 = system: UACC-62
# HCT-15 = system: HCT-15
# NCI-H23 = system: NCI-H23
# SNB-75 = system: SNB-75
# NCI-H460 = system: NCI-H460
# K562 = system: K562
# SF-268 = system: SF-268
# SW-620 = system: SW-620
# MOLT-4 = system: MOLT-4
# SF-295 = system: SF-295
SMILES,GI50 (IGROV-1),GI50 (MDA-MB-231),GI50 (BT-549),GI50 (A549),GI50 (EKVX),GI50 (SF-539),GI50 (SR),GI50 (A498),GI50 (OVCAR-3),GI50 (OVCAR-8),GI50 (UACC-62),GI50 (HCT-15),GI50 (NCI-H23),GI50 (SNB-75),GI50 (NCI-H460),GI50 (K562),GI50 (SF-268),GI50 (SW-620),GI50 (MOLT-4),GI50 (SF-295)
COC(O)C(=O)c1c2c(cc3c1CCC3)CCC2 (stereo not given),> 100 µM (inactive),> 100 µM (inactive),> 100 µM (inactive),> 100 µM (inactive),> 100 µM (inactive),> 100 µM (inactive),66.2 µM (inactive),> 100 µM (inactive),> 100 µM (inactive),> 100 µM (inactive),> 100 µM (inactive),> 100 µM,> 100 µM (inactive),> 100 µM (inactive),> 100 µM (inactive),80.9 µM (inactive),> 100 µM (inactive),> 100 µM (inactive),> 100 µM (inactive),> 100 µM (inactive)
CN(C(=O)C12C3(C(=O)O)C4C5(C(=O)O)C3C1(C(=O)O)C5C42C(=O)O)C(C)(C)C (stereo not given),> 100 µM (inactive),> 100 µM (inactive),> 100 µM (inactive),> 100 µM (inactive),> 100 µM (inactive),> 100 µM (inactive),> 100 µM (inactive),> 100 µM (inactive),> 100 µM (inactive),> 100 µM (inactive),> 100 µM (inactive),> 100 µM,> 100 µM (inactive),0.442 µM (active),> 100 µM (inactive),> 100 µM (inactive),> 100 µM (inactive),> 100 µM (inactive),> 100 µM (inactive),> 100 µM (inactive)
N#CC1(C#N)C2(c3ccccc3)OC(c3ccccc3)(c3cc4ccccc4cc32)C1(C#N)C#N,14.8 µM (inactive),15.7 µM (inactive),> 10 µM (inactive),14.7 µM (inactive),16.6 µM (inactive),16.1 µM (inactive),33.3 µM (inactive),19.5 µM (inactive),13.9 µM (inactive),8.3 µM (inactive),17.7 µM (inactive),12.2 µM,11.9 µM (inactive),13 µM (inactive),18 µM (inactive),2.86 µM (inactive),17 µM (inactive),2.62 µM (inactive),1.71 µM (inactive),15.8 µM (inactive)
N#CC(C#N)=Cc1c(O)ccc2ccccc12,17.8 µM (inactive),13.2 µM (inactive),16.7 µM (inactive),17.1 µM (inactive),12 µM (inactive),10.6 µM (inactive),4.17 µM (inactive),16 µM (inactive),13.7 µM (inactive),16.3 µM (inactive),12.9 µM (inactive),14.1 µM,12.2 µM (inactive),3.3 µM (inactive),14.7 µM (inactive),4.05 µM (inactive),11.9 µM (inactive),11.9 µM (inactive),2.18 µM (inactive),15 µM (inactive)
CNC(=O)CCC(NC(=O)OC(C)(C)C)C(=O)NC(Cc1ccc([N+](=O)[O-])cc1)C(=O)NCC(=O)NC (stereo not given) (Boc-Glu(NHMe)-[Phe(4-NO2)]-Gly-NHMe; configuration not given here),> 100 µM (inactive),> 100 µM (inactive),> 100 µM (inactive),> 100 µM (inactive),> 100 µM (inactive),> 100 µM (inactive),> 100 µM (inactive),68.2 µM (inactive),> 100 µM (inactive),> 100 µM (inactive),> 100 µM (inactive),> 100 µM,> 100 µM (inactive),> 100 µM (inactive),> 100 µM (inactive),> 100 µM (inactive),> 100 µM (inactive),> 100 µM (inactive),> 100 µM (inactive),> 100 µM (inactive)
COc1cc2c(cc1OC)C(Cl)C(c1ccc(Br)cc1)=C2Cl (stereo not given),11.9 µM (inactive),9.64 µM (inactive),2.31 µM (inactive),14.1 µM (inactive),10.6 µM (inactive),12.4 µM (inactive),2.62 µM (inactive),15.2 µM (inactive),9.84 µM (inactive),10.1 µM (inactive),11.2 µM (inactive),8.18 µM,9.95 µM (inactive),13.3 µM (inactive),8.32 µM (inactive),5.33 µM (inactive),11.1 µM (inactive),9.51 µM (inactive),4.24 µM (inactive),14.9 µM (inactive)
COc1ccc(Nc2nc3cc(C(F)(F)F)ccc3n3cccc23)cc1OC,25.5 µM (inactive),17.8 µM (inactive),17.3 µM (inactive),14.1 µM (inactive),20.3 µM (inactive),16.8 µM (inactive),9.89 µM (inactive),14.7 µM (inactive),20.7 µM (inactive),23.3 µM (inactive),15.5 µM (inactive),11.4 µM,17.6 µM (inactive),10.6 µM (inactive),10.4 µM (inactive),9.04 µM (inactive),26.7 µM (inactive),34.7 µM (inactive),7.85 µM (inactive),10.3 µM (inactive)
